Source: ChEMBL document CHEMBL1770115, “Fused heterocyclic M1 positive allosteric modulators” (Bioorg Med Chem Lett, 2011)
Calls of active or inactive are those of the source. No cut-off for these calls is given here.

How the values were obtained:
[1] = biological target: T1, Muscarinic acetylcholine receptor M1 (Homo sapiens) (UniProt P11229); experiment: Positive allosteric modulation of human muscarinic M1 receptor expressed in CHO cells assessed as effect on acetylcholine-induced calcium mobilization by FLIPR assay; assay type: functional, cell-based
T1 sequence (whole entry): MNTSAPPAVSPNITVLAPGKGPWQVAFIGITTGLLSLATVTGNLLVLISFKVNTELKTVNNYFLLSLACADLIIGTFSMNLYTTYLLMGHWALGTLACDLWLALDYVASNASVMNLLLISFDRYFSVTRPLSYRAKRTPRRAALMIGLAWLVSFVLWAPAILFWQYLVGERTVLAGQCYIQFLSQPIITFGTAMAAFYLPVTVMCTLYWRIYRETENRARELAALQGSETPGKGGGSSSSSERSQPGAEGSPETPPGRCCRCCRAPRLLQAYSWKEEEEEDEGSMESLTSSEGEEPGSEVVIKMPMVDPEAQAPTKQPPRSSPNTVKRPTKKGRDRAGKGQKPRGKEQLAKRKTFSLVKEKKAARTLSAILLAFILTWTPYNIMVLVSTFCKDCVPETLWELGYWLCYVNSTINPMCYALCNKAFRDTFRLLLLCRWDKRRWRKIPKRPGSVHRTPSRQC

[2] = tested on: Plasma; experiment: Plasma concentration in Sprague-Dawley rat at 10 mg/kg, po; assay type: ADME, organism-based; design: dose 10 mg/kg, route oral; conditions: in vivo
[3] = tested on: Brain; experiment: Drug concentration in Sprague-Dawley rat barin at 10 mg/kg, po; assay type: ADME, organism-based; design: dose 10 mg/kg, route oral; conditions: in vivo, read-out: Drug uptake
[4] = tested on: Cerebrospinal fluid; experiment: Drug concentration in Sprague-Dawley rat cerebrospinal fluid at 10 mg/kg, po; assay type: ADME, organism-based; design: dose 10 mg/kg, route oral; conditions: in vivo, read-out: Drug uptake
[5] = Ratio of drug level in brain to plasma in Sprague-Dawley rat at 10 mg/kg, po; assay type: ADME, organism-based; design: dose 10 mg/kg, route oral
[6] = biological target: T1, Muscarinic acetylcholine receptor M1 (Homo sapiens); experiment: Positive allosteric modulation of human muscarinic M1 receptor expressed in CHO cells assessed as potentiation of acetylcholine-induced calcium mobilization at 1 uM by FLIPR assay relative to control; assay type: functional, cell-based
[7] = biological target: T1, Muscarinic acetylcholine receptor M1 (Homo sapiens); experiment: Agonist activity at human muscarinic M1 receptor expressed in CHO cells assessed as increase of calcium mobilization at 100 uM by FLIPR assay; assay type: functional, cell-based

IP [1] [nM]	also measured	Structure (SMILES)
5200	–	O=C(O)c1cn(C/C=C/c2ccccn2)c2c(F)cccc2c1=O
910	–	Cc1ccc(/C=C/Cn2cc(C(=O)O)c(=O)c3cccc(F)c32)cc1
> 10000	–	Cc1ccccc1/C=C/Cn1cc(C(=O)O)c(=O)c2cccc(F)c21
3800	–	CN1CCN(C)c2cc(Cn3cc(C(=O)O)c(=O)c4c(F)cccc43)ccc21
860	–	CN(C)c1ccc(/C=C/Cn2cc(C(=O)O)c(=O)c3cccc(F)c32)cc1
250	–	Cc1cccc(/C=C/Cn2cc(C(=O)O)c(=O)c3cccc(F)c32)c1
142	–	Cn1cc2cc(Cn3cc(C(=O)O)c(=O)c4c(F)cccc43)ccc2n1
240	–	O=C(O)c1cn(C/C=C/c2ccccc2F)c2c(F)cccc2c1=O
459	–	O=C(O)c1cn(Cc2ccc3ncccc3c2)c2cccc(F)c2c1=O
617	–	O=C(O)c1cn(Cc2ccc3[nH]c(=O)[nH]c3c2)c2cccc(F)c2c1=O
120	–	O=C(O)c1cn(C/C=C/c2ccc(F)cc2)c2c(F)cccc2c1=O
80	–	O=C(O)c1cn(Cc2ccc3ccccc3c2)c2c(F)cccc2c1=O
81	–	O=C1Cc2cc(Cn3cc(C(=O)O)c(=O)c4c(F)cccc43)ccc2N1
69	concentration [2]: 676 nM; concentration [3]: 178 nM; concentration [4]: 18 nM; Kp [5]: 0.26; fold change (FC) [6]: 100; Activity [7]: Active	O=C(O)c1cn(Cc2ccc3ccccc3c2)c2cccc(F)c2c1=O
624	–	CN1CCCc2cc(Cn3cc(C(=O)O)c(=O)c4c(F)cccc43)ccc21
72	concentration [2]: 13200 nM; concentration [3]: 538 nM; concentration [4]: 155 nM; Kp [5]: 0.04	Cn1ncc2cc(Cn3cc(C(=O)O)c(=O)c4c(F)cccc43)ccc21
> 10000	–	O=C(O)c1cn(C/C=C/c2cccnc2)c2c(F)cccc2c1=O

IP [1] [nM]	also measured	Structure (SMILES)
897	–	O=C(O)c1cn(Cc2ccc3ccccc3n2)c2cccc(F)c2c1=O
1400	–	COc1cccc(/C=C/Cn2cc(C(=O)O)c(=O)c3cccc(F)c32)c1
320	–	O=C(O)c1cn(C/C=C/c2ccc(Cl)cc2)c2c(F)cccc2c1=O
3400	–	O=C(O)c1cn(CC#Cc2ccccc2)c2c(F)cccc2c1=O
266	–	O=C(O)c1cn(Cc2ccc3ccccc3c2)c2c(F)ccc(F)c2c1=O
1800	–	O=C(O)c1cn(Cc2nc3ccccc3s2)c2cccc(F)c2c1=O
104	–	O=C(O)c1cn(Cc2ccc3[nH]ncc3c2)c2cccc(F)c2c1=O
> 10000	–	CN1CCc2cc(Cn3cc(C(=O)O)c(=O)c4c(F)cccc43)ccc21
> 10000	–	COc1ccccc1/C=C/Cn1cc(C(=O)O)c(=O)c2cccc(F)c21
97	–	O=C(O)c1cn(Cc2ccc3c(c2)CCC3O)c2cccc(F)c2c1=O (configuration not stated)
380	–	COc1ccc(/C=C/Cn2cc(C(=O)O)c(=O)c3cccc(F)c32)cc1
1000	–	N#Cc1ccc(/C=C/Cn2cc(C(=O)O)c(=O)c3cccc(F)c32)cc1
270	–	O=C(O)c1cn(C/C=C/c2ccccc2)c2c(F)cccc2c1=O
84	concentration [2]: 3700 nM; concentration [3]: 577 nM; concentration [4]: 119 nM; Kp [5]: 0.15	O=C(O)c1cn(Cc2ccc3c(c2)OCCO3)c2cccc(F)c2c1=O
370	–	O=C(O)c1cn(C/C=C/c2cccc(F)c2)c2c(F)cccc2c1=O
610	–	O=C(O)c1cn(C/C=C/c2ccncc2)c2c(F)cccc2c1=O
